The compounds below were run against GluA1o-γ8 (GRIA1o-CACNG8 fusion construct; TARP γ8 dependent AMPA receptor) (Homo sapiens (Human), UniProt P42261+Q8WXS5) (assay: Calcium flux assay (FLIPR), inhibition of glutamate response of GluA1o-γ8 channel). Details: HEK293 cells stably expressing GRIA1o-CACNG8 fusion; 15 μM glutamate; pIC50 = negative log of IC50 in molar; read-out: GluR1-γ8 (pIC50) (converted).
Chain of GluA1o-γ8 (GRIA1o-CACNG8 fusion construct; TARP γ8 dependent AMPA receptor) (P42261 other isoform, or with tags, fused parts or gaps): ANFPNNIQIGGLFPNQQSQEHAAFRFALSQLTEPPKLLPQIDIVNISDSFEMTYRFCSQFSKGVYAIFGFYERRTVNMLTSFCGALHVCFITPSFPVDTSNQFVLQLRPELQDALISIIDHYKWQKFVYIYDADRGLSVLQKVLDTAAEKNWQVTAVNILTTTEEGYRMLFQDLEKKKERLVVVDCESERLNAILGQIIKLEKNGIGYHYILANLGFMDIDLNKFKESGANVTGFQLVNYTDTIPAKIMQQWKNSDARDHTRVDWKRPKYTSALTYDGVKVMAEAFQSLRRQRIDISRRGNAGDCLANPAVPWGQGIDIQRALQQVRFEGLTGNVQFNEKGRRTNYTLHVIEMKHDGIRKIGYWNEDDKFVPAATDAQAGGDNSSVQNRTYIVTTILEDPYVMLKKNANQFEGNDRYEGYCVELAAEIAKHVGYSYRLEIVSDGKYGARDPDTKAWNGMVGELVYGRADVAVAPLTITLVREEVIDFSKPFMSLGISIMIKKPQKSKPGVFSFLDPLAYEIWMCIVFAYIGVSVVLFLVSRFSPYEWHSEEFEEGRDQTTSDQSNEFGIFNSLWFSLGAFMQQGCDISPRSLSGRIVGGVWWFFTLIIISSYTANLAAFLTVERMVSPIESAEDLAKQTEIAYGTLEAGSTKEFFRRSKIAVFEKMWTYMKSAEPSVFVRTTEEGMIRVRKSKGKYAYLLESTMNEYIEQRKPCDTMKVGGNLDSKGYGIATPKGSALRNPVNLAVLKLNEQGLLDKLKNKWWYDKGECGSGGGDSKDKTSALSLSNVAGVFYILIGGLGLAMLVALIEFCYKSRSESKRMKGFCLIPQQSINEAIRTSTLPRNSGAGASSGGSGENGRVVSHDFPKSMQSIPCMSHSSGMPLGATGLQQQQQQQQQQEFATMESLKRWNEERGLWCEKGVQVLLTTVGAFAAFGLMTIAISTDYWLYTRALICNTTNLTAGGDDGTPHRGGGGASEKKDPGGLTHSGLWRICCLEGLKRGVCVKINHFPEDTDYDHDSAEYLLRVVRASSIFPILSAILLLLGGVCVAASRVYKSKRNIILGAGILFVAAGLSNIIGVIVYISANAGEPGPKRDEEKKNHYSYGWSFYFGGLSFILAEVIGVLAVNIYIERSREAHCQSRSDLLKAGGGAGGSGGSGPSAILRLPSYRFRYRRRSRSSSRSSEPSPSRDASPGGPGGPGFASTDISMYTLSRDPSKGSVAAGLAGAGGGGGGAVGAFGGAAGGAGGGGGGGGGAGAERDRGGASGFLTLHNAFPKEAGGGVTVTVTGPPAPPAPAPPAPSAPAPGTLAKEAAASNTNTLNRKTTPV
Format: cell-based
Procedure, shortened: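 Potency is the midpoint of a four-parameter logistic fit to control-normalized FLIPR calcium responses elicited by 15 μM glutamate. Stable HEK293 cells carried a fused GluA1o-γ8 construct and were preincubated with compound and calcium dye in pH 7.4 HEPES buffer.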
For `Cc1cnc(N2CCOCC2)n2nc(C(C)C)c(-c3ccc4c(c3)CC(=O)N4)c12` [Example 244, 5-(2-Isopropyl-4-methyl-7-morpholino-pyrazolo[1,5-c]pyrimidin-3-yl)indolin-2-one], the IC50 was 79.4 nM. With `O=C1Cc2cc(-c3c(-c4ccccc4)nn4c(N5CCC(O)CC5)nccc34)ccc2N1` [Example 187, 5-[7-(4-Hydroxy-1-piperidyl)-2-phenyl-pyrazolo[1,5-c]pyrimidin-3-yl]indolin-2-one] the IC50 was 0.158 nM. `COc1nccc2c(-c3ccc4c(c3)CC(=O)N4)c(-c3ccccc3)nn12` [Example 206, 5-(7-Methoxy-2-phenyl-pyrazolo[1,5-c]pyrimidin-3-yl)indolin-2-one] gave an IC50 of 398 nM. `Oc1ccc(-c2c(-c3cccc(F)c3)nc3c(N4CCOCC4)nccn23)cc1` [Example 4, 4-[2-(3-Fluorophenyl)-8-morpholino-imidazo[1,2-a]pyrazin-3-yl]phenol] showed an IC50 of 63.1 nM. `O=C(Nc1ccccc1)c1nc2c(N3CCOCC3)nccn2c1-c1ccc2[nH]c(=O)[nH]c2c1` [Example 140, 8-Morpholino-3-(2-oxo-1,3-dihydrobenzimidazol-5-yl)-N-phenyl-imidazo[1,2-a]pyrazine-2-carboxamide] was tested, and the IC50 was 20 nM. `O=C1Nc2ccc(-c3c(-c4ccc(F)cc4)nc4c(N5CCOCC5)nccn34)cc2C1(F)F` [Example 136, 3,3-Difluoro-5-[2-(4-fluorophenyl)-8-morpholino-imidazo[1,2-a]pyrazin-3-yl]indolin-2-one] gave an IC50 of 398 nM. Compound `O=c1[nH]c2ccc(-c3c(-c4ccc(F)cc4)nc4c(N5CC6(COC6)C5)nccn34)cc2[nH]1` [Example 26, 5-[2-(4-Fluorophenyl)-8-(6-oxa-2-azaspiro[3.3]heptan-2-yl)imidazo[1,2-a]pyrazin-3-yl]-1,3-dihydrobenzimidazol-2-one] has an IC50 of 5.01 nM. Compound `O=c1[nH]c2ccc(-c3c(C4CC4)nn4cnc(C(F)(F)F)cc34)cc2s1` [Example 230, 6-[2-Cyclopropyl-5-(trifluoromethyl)pyrazolo[1,5-c]pyrimidin-3-yl]-3H-1,3-benzothiazol-2-one] has an IC50 of 398 nM. Compound `O=C1Cc2cc(-c3c(-c4ccccc4)nn4c(N5CC[C@@H](O)[C@H](F)C5)nccc34)ccc2N1` (relative stereo) [Example 193, trans-5-[7-(3-Fluoro-4-hydroxy-1-piperidyl)-2-phenyl-pyrazolo[1,5-c]pyrimidin-3-yl]indolin-2-one] has an IC50 of 0.316 nM. `CC1C(=O)N(C)CCN1c1nccn2c(-c3ccc4c(c3)CC(=O)N4)c(-c3ccc(F)cc3)nc12` (stereo not shown) [Example 111, 5-(8-(2,4-Dimethyl-3-oxopiperazin-1-yl)-2-(4-fluorophenyl)imidazo[1,2-a]pyrazin-3-yl)indolin-2-one] showed an IC50 of 1.58 nM. With `C[C@@H]1COCCN1c1nccn2c(-c3ccc4c(c3)CC(=O)N4)c(-c3ccc(F)cc3)nc12` [Example 44, 5-[2-(4-Fluorophenyl)-8-[(3R)-3-methylmorpholin-4-yl]imidazo[1,2-a]pyrazin-3-yl]indolin-2-one] the IC50 was 7.94 nM. For `O=C1CN(c2nccn3c(-c4ccc5c(c4)CC(=O)N5)c(Cc4ccccc4)nc23)CCN1` [Example 38, 5-[2-Benzyl-8-(3-oxopiperazin-1-yl)imidazo[1,2-a]pyrazin-3-yl]indolin-2-one], the IC50 was 1 nM. Work on `Cc1nccn2c(-c3ccc4c(c3)CC(=O)N4)c(-c3ccc(F)cc3)nc12` [Example 133, 5-[2-(4-Fluorophenyl)-8-methyl-imidazo[1,2-a]pyrazin-3-yl]indolin-2-one] yielded an IC50 of 251 nM. For `O=C1Cc2cc(-c3c(-c4ccncc4)nc4c(N5CC(F)C5)nccn34)ccc2N1` [Example 89, 5-[8-(3-Fluoroazetidin-1-yl)-2-(4-pyridyl)imidazo[1,2-a]pyrazin-3-yl]indolin-2-one], the IC50 was 200 nM. For `CC1(O)CN(c2nccn3c(-c4ccc5c(c4)CC(=O)N5)c(-c4ccc(F)cc4)nc23)C1` [Example 67, 5-[2-(4-Fluorophenyl)-8-(3-hydroxy-3-methyl-azetidin-1-yl)imidazo[1,2-a]pyrazin-3-yl]indolin-2-one], the IC50 was 1.26 nM. For `O=C1Cc2cc(-c3c(-c4ccc(F)cc4)nn4c(N5CCC(F)CC5)nccc34)ccc2N1` [Example 190, 5-[2-(4-Fluorophenyl)-7-(4-fluoro-1-piperidyl)pyrazolo[1,5-c]pyrimidin-3-yl]indolin-2-one], the IC50 was 0.2 nM. In the case of `O=S1(=O)Cc2cc(-c3c(-c4ccc(F)cc4)nn4c(N5CCOCC5)nccc34)ccc2N1` [Example 178, 5-[2-(4-Fluorophenyl)-7-morpholino-pyrazolo[1,5-c]pyrimidin-3-yl]-1,3-dihydro-2,1-benzothiazole 2,2-dioxide], the IC50 is reported as 2 nM. `CC(C)Oc1nccn2c(-c3ccc4c(c3)CC(=O)N4)c(-c3ccc(F)cc3)nc12` [Example 129, 5-[2-(4-Fluorophenyl)-8-isopropoxy-imidazo[1,2-a]pyrazin-3-yl]indolin-2-one] showed an IC50 of 20 nM. `N#Cc1ccc(-c2nc3c(N4CCNC(=O)C4)nccn3c2-c2ccc3[nH]ncc3c2)cc1` [Example 209, 4-[3-(1H-Indazol-5-yl)-8-(3-oxopiperazin-1-yl)imidazo[1,2-a]pyrazin-2-yl]benzonitrile] gave an IC50 of 2 nM. For `COc1nccn2c(-c3ccc4[nH]c(=O)[nH]c4c3)c(-c3ccc(F)cc3)nc12` [Example 99, 5-[2-(4-Fluorophenyl)-8-methoxy-imidazo[1,2-a]pyrazin-3-yl]-1,3-dihydrobenzimidazol-2-one], the IC50 was 25.1 nM. `O=c1[nH]c2ccc(-c3c(-c4ccccc4)nc4cnc(C(F)(F)F)cn34)cc2s1` [Example 245, 6-[2-Phenyl-6-(trifluoromethyl)imidazo[1,2-a]pyrazin-3-yl]-3H-1,3-benzothiazol-2-one] gave an IC50 of 12.6 nM. Compound `CO[C@@H]1CCN(c2nccc3c(-c4ccc5c(c4)CC(=O)N5)c(-c4ccccc4)nn23)C1` [Example 202, 5-[7-[(3R)-3-Methoxypyrrolidin-1-yl]-2-phenyl-pyrazolo[1,5-c]pyrimidin-3-yl]indolin-2-one] has an IC50 of 2.51 nM. For `O=c1[nH]c2ccc(-c3c(-c4ccc(F)cc4)nc4c(O)nccn34)cc2[nH]1` [Example 249, 5-[2-(4-Fluorophenyl)-8-hydroxy-imidazo[1,2-a]pyrazin-3-yl]-1,3-dihydrobenzimidazol-2-one], the IC50 was 1580 nM. In the case of `N#Cc1ccc(-c2nc3c(N4CCOCC4)nccn3c2-c2ccc3c(c2)CC(=O)N3)cc1` [Example 102, 4-[8-Morpholino-3-(2-oxoindolin-5-yl)imidazo[1,2-a]pyrazin-2-yl]benzonitrile], the IC50 is reported as 2 nM. `O=C1Cc2cc(-c3c(C4CCCCC4)nc4c(N5CCOCC5)nccn34)ccc2N1` [Example 56, 5-(2-Cyclohexyl-8-morpholino-imidazo[1,2-a]pyrazin-3-yl)indolin-2-one] was tested, and the IC50 was 7.94 nM. `Oc1ccc(-c2c(-c3ccc(F)cc3)nc3c(N4CCCC(F)(F)C4)nccn23)cc1` [Example 29, 4-[8-(3,3-Difluoro-1-piperidyl)-2-(4-fluorophenyl)imidazo[1,2-a]pyrazin-3-yl]phenol] gave an IC50 of 31.6 nM. Work on `CC1(O)CCN(c2nccc3c(-c4ccc5c(c4)CC(=O)N5)c(-c4ccc(F)cc4)nn23)CC1` [Example 186, 5-[2-(4-Fluorophenyl)-7-(4-hydroxy-4-methyl-1-piperidyl)pyrazolo[1,5-c]pyrimidin-3-yl]indolin-2-one] yielded an IC50 of 0.2 nM. `CC(=O)N1CCN(c2nccn3c(-c4ccc(O)cc4)c(Cc4ccccc4)nc23)CC1` [Example 23, 1-[4-[2-Benzyl-3-(4-hydroxyphenyl)imidazo[1,2-a]pyrazin-8-yl]piperazin-1-yl]ethanone] showed an IC50 of 25.1 nM. Work on `O=C1Cc2cc(-c3c(-c4ccccc4)nn4c(N5CCOCC5)nccc34)ccc2N1` [Example 201, 5-(7-Morpholino-2-phenyl-pyrazolo[1,5-c]pyrimidin-3-yl)indolin-2-one] yielded an IC50 of 1 nM. `CC(=O)N[C@@H]1CCN(c2nccn3c(-c4ccc5c(c4)CC(=O)N5)c(-c4ccc(F)cc4)nc23)C1` [Example 250, N-[(3R)-1-[2-(4-Fluorophenyl)-3-(2-oxoindolin-5-yl)imidazo[1,2-a]pyrazin-8-yl]pyrrolidin-3-yl]acetamide] gave an IC50 of 39.8 nM. `Cc1cnc(N2CCOCC2)n2nc(-c3ccccc3)c(-c3ccc4[nH]ncc4c3)c12` [Example 212, 4-[3-(1H-Indazol-5-yl)-4-methyl-2-phenyl-pyrazolo[1,5-c]pyrimidin-7-yl]morpholine] gave an IC50 of 0.0794 nM. In the case of `CC(=O)N[C@H]1CCN(c2nccn3c(-c4ccc5[nH]c(=O)[nH]c5c4)c(-c4ccc(F)cc4)nc23)C1` [Example 98, N-[(3S)-1-[2-(4-Fluorophenyl)-3-(2-oxo-1,3-dihydrobenzimidazol-5-yl)imidazo[1,2-a]pyrazin-8-yl]pyrrolidin-3-yl]acetamide], the IC50 is reported as 2.51 nM. Work on `O=C1Cc2cc(-c3c(-c4ccc(F)c(F)c4)nc4c(N5CCOCC5)nccn34)ccc2N1` [Example 35, 5-[2-(3,4-Difluorophenyl)-8-morpholino-imidazo[1,2-a]pyrazin-3-yl]indolin-2-one] yielded an IC50 of 0.501 nM. `O=C(Nc1ccncc1)c1nc2c(N3CCOCC3)nccn2c1-c1ccc2[nH]c(=O)[nH]c2c1` [Example 147, 8-Morpholino-3-(2-oxo-1,3-dihydrobenzimidazol-5-yl)-N-(4-pyridyl)imidazo[1,2-a]pyrazine-2-carboxamide] showed an IC50 of 501 nM. Work on `Oc1ccc(-c2c(-c3ccc(F)cc3)nc3c(N4CCC(F)(F)CC4)nccn23)cc1` [Example 28, 4-[8-(4,4-Difluoro-1-piperidyl)-2-(4-fluorophenyl)imidazo[1,2-a]pyrazin-3-yl]phenol] yielded an IC50 of 158 nM. `O=C1CCN(c2nccn3c(-c4ccc5c(c4)CC(=O)N5)c(-c4ccc(F)cc4)nc23)CC1` [Example 109, 5-(2-(4-Fluorophenyl)-8-(4-oxopiperidin-1-yl)imidazo[1,2-a]pyrazin-3-yl)indolin-2-one] gave an IC50 of 0.0631 nM. For `O=C1Cc2cc(-c3c(-c4ccc(F)cc4)nc4c(N5CCC5)nccn34)ccc2N1` [Example 58, 5-[8-(Azetidin-1-yl)-2-(4-fluorophenyl)imidazo[1,2-a]pyrazin-3-yl]indolin-2-one], the IC50 was 1.58 nM.

Reference: patent US10513523B2, “Imidazopyrazines and pyrazolopyrimidines and their use as AMPA receptor modulators” (Janssen Pharmaceutica NV, priority 2015, dated 2019)
